Test results reported in BindingDB's records for doi:10.1016/j.bmc.2015.10.018 (Aristotle University of Thessaloniki, 2015).

Experiments:
[1] = target: T1, Carbonic anhydrase 12 (Homo sapiens, UniProt O43570); assay: (§1) Inhibition of human recombinant carbonic anhydrase 12 preincubated for 15 mins at room temperature/6 hrs at 4 deg C by stopped-flow CO2 hydration assay; conditions: 25 °C
[2] = target: T1, Carbonic anhydrase 12; assay: ChEBML_1523544; conditions: 25 °C; description: as §1
[3] = target: T2, Carbonic anhydrase 2 (Homo sapiens, UniProt P00918); assay: ChEBML_1523541; conditions: 25 °C
Description: (§2) Inhibition of human recombinant carbonic anhydrase 2 preincubated for 15 mins at room temperature/6 hrs at 4 deg C by stopped-flow CO2 hydration assay

[4] = target: T3, Carbonic anhydrase 1 (Homo sapiens, UniProt P00915); assay: ChEBML_1523540; conditions: 25 °C
Description: Inhibition of human recombinant carbonic anhydrase 1 preincubated for 15 mins at room temperature/6 hrs at 4 deg C by stopped-flow CO2 hydration assay

[5] = target: T2, Carbonic anhydrase 2; assay: as §2; conditions: 25 °C
[6] = target: T3, Carbonic anhydrase 1; assay: Inhibition of human recombinant carbonic anhydrase 1

T3 sequence (P00915 whole entry): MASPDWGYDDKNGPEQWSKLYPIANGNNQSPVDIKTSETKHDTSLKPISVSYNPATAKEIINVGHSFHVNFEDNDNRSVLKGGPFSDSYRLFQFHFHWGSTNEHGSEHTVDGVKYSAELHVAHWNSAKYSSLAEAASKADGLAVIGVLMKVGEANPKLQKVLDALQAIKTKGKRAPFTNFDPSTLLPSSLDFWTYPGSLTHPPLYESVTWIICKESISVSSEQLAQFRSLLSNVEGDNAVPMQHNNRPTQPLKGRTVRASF
T1 sequence (O43570 whole entry): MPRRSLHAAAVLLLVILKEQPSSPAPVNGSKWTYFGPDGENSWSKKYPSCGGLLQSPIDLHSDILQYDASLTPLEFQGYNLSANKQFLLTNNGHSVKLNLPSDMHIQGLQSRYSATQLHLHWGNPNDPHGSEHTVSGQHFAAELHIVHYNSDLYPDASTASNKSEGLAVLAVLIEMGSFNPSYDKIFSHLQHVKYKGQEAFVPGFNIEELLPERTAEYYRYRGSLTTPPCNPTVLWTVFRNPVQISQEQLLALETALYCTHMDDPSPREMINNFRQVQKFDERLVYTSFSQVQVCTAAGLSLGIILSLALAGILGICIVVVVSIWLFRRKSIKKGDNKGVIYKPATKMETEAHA

O=c1cc(O)cc2oc(-c3ccc(O)c(O)c3)c(O[C@@H]3O[C@H](CO)[C@@H](O)[C@H](O)[C@H]3O)c(O)c1-2 [Quercetin 3-O-beta-D-glucoside]
Ki [1]: 52 nM
Ki [2]: 52.1 nM
Ki [3]: 6.21 µM
Ki [4]: > 10 µM
Ki [5]: 6.21 µM
Ki [6]: > 10 µM
